# Measured values published in patent publication US20070128217A1 (priority 2003, published 2007).
# How the values were obtained:
# [1] = test system: antibodies in sera from SARS patients (sera 1a, 1b, 2, 6, 37, 62, London, SARS-yellow, SARS-green); type: binding, human; set-up: Binding of serum 6 to linear peptides of protein X1 of SARS-CoV Urbani / Binding of serum 37 to linear peptides of protein X1 of SARS-CoV Urbani / Binding of serum 6 to looped/cyclic peptide (PEPSCAN-ELISA) / Binding of serum 37 to looped/cyclic peptide (PEPSCAN-ELISA) / Binding of serum 37 to looped/cyclic peptides of protein X1 of SARS-CoV Urbani / Binding of serum 6 to linear peptides of protein X2 / Binding of serum 37 to linear peptides of protein X2 / Binding of serum 37 to looped/cyclic peptides of protein X2 of SARS-CoV Urbani / Binding of serum 6 to linear peptides of protein M of SARS-CoV Urbani / Binding of serum 37 to linear peptides of protein M of SARS-CoV Urbani / Binding of serum 6 to looped/cyclic peptides of protein M of SARS-CoV Urbani / Binding of serum 37 to looped/cyclic peptides of protein M of SARS-CoV Urbani / Binding of serum 6 to linear peptides of protein X3 of SARS-CoV Urbani / Binding of serum 37 to linear peptides of protein X3 of SARS-CoV Urbani / Binding of serum 37 to looped/cyclic peptides of protein X3 of SARS-CoV Urbani / Binding of serum 6 to linear peptides of protein X4 of SARS-CoV Urbani / Binding of serum 37 to linear peptides of protein X4 of SARS-CoV Urbani / Binding of serum 37 to looped/cyclic peptides of protein X4 of SARS-CoV Urbani / Binding of serum 6 to linear peptides of protein X5 of SARS-CoV Urbani / Binding of serum 37 to linear peptides of protein X5 of SARS-CoV Urbani / Binding of serum 37 to looped/cyclic peptides of protein X5 of SARS-CoV Urbani / Binding of serum 6 to linear peptides of protein N of SARS-CoV Urbani / Binding of serum 37 to linear peptides of protein N of SARS-CoV Urbani / Binding of serum 6 to linear peptide (PEPSCAN-ELISA) / Binding of serum 1a to looped/cyclic peptides of protein N of SARS-CoV Urbani / Binding of serum 1b to looped/cyclic peptides of protein N of SARS-CoV Urbani / Binding of serum 2 to looped/cyclic peptides of protein N of SARS-CoV Urbani / Binding of serum 6 to looped/cyclic peptides of protein N of SARS-CoV Urbani / Binding of serum 37 to looped/cyclic peptides of protein N of SARS-CoV Urbani / Binding of serum 62 to looped/cyclic peptides of protein N of SARS-CoV Urbani / Binding of serum London to looped/cyclic peptides of protein N of SARS-CoV Urbani / Binding of serum SARS-green to looped/cyclic peptides of protein N of SARS-CoV Urbani: unit not given here
# [2] = test system: control sera (pooled serum of ten healthy LUMC hospital workers; commercial negative donor pooled serum from the Dutch bloodbank); type: binding, human; set-up: Binding of Control serum LUMC to linear peptides / Binding of Control serum Blood-bank to linear peptides / Binding of Control serum LUMC to looped peptides / Binding of Control Serum Blood-Bank to Looped peptides / Binding of Control serum LUMC to linear peptides of the protein M of SARS-CoV Urbani / Binding of Control serum Blood-bank to linear peptides of the protein M of SARS-CoV Urbani / Binding of Control serum LUMC to looped peptides of the protein M of SARS-CoV Urbani / Binding of Control Serum Blood-Bank to Looped peptides of the protein M of SARS-CoV Urbani: unit not given here
# [3] = test system: rabbit serum obtained by immunizing a rabbit with the SARS-CoV strain Frankfurt 1; type: binding; set-up: Binding of a rabbit serum to linear peptides / Binding of a rabbit serum to looped peptides / Rabbit serum linear peptides / Rabbit serum looped peptides / Binding of a rabbit serum to linear peptides of protein N of SARS-CoV Urbani (Rabbit serum linear peptides) / Binding of a rabbit serum to looped/cyclic peptides of protein N of SARS-CoV Urbani (Rabbit serum looped peptides): unit not given here
sequence,measurement,setting,value
PFGWLVIGVAFLAVF,Binding of serum 1a to linear peptides of protein X1 of SARS-CoV Urbani,[1],0.7
same,Binding of serum 1a to looped/cyclic peptide (PEPSCAN-ELISA),[1],0.5
same,Binding of serum 1b to linear peptides of protein X1 of SARS-CoV Urbani,[1],0.5
same,Binding of serum 1b to looped/cyclic peptide (PEPSCAN-ELISA),[1],0.4
same,Binding of serum 2 to linear peptides of protein X1 of SARS-CoV Urbani,[1],0.5
same,Binding of serum 2 to looped/cyclic peptide (PEPSCAN-ELISA),[1],0.5
same,Binding of serum 6 to linear peptides of protein X1 of SARS-CoV Urbani,[1],0.4
same,Binding of serum 6 to looped/cyclic peptide (PEPSCAN-ELISA),[1],0.2
same,Binding of serum 37 to linear peptides of protein X1 of SARS-CoV Urbani,[1],0.7
same,Binding of serum 37 to looped/cyclic peptide (PEPSCAN-ELISA),[1],0.5
same,Binding of serum 62 to linear peptides of protein X1 of SARS-CoV Urbani,[1],0.6
same,Binding of serum 62 to looped/cyclic peptide (PEPSCAN-ELISA),[1],0.5
same,Binding of serum London to linear peptides of protein X1 of SARS-CoV Urbani,[1],0.3
same,Binding of serum London to looped/cyclic peptide (PEPSCAN-ELISA),[1],0.2
same,Binding of serum SARS-green to linear peptides of protein X1 of SARS-CoV Urbani,[1],0.3
same,Binding of serum SARS-green to looped/cyclic peptide (PEPSCAN-ELISA),[1],0.4
same,Binding of serum SARS-yellow to linear peptides of protein X1 of SARS-CoV Urbani,[1],0.7
same,Binding of serum SARS-yellow to looped/cyclic peptide (PEPSCAN-ELISA),[1],0.5
same,Binding of Control Serum Blood-Bank to Looped peptides,[2],0.5
same,Binding of Control serum Blood-bank to linear peptides,[2],0.5
same,Binding of Control serum LUMC to linear peptides,[2],0.5
same,Binding of Control serum LUMC to looped peptides,[2],0.5
same,Binding of a rabbit serum to linear peptides,[3],1.1
same,Binding of a rabbit serum to looped peptides,[3],0.5
PKEITVATSRTLSYY,Binding of serum 1a to linear peptides of protein M of SARS-CoV Urbani,[1],0.6
same,Binding of serum 1a to looped/cyclic peptides of protein M of SARS-CoV Urbani,[1],0.6
same,Binding of serum 1b to linear peptides of protein M of SARS-CoV Urbani,[1],0.4
same,Binding of serum 1b to looped/cyclic peptides of protein M of SARS-CoV Urbani,[1],0.6
same,Binding of serum 2 to linear peptides of protein M of SARS-CoV Urbani,[1],0.5
same,Binding of serum 2 to looped/cyclic peptides of protein M of SARS-CoV Urbani,[1],0.6
same,Binding of serum 6 to linear peptides of protein M of SARS-CoV Urbani,[1],0.2
same,Binding of serum 6 to looped/cyclic peptides of protein M of SARS-CoV Urbani,[1],0.7
same,Binding of serum 37 to linear peptides of protein M of SARS-CoV Urbani,[1],0.8
same,Binding of serum 37 to looped/cyclic peptides of protein M of SARS-CoV Urbani,[1],0.6
same,Binding of serum 62 to linear peptides of protein M of SARS-CoV Urbani,[1],0.7
same,Binding of serum 62 to looped/cyclic peptides of protein M of SARS-CoV Urbani,[1],0.6
same,Binding of serum London to linear peptides of protein M of SARS-CoV Urbani,[1],0.3
same,Binding of serum London to looped/cyclic peptides of protein M of SARS-CoV Urbani,[1],0.2
same,Binding of serum SARS-green to linear peptides of protein M of SARS-CoV Urbani,[1],0.1
same,Binding of serum SARS-green to looped/cyclic peptides of protein M of SARS-CoV Urbani,[1],0.4
same,Binding of serum SARS-yellow to linear peptides of protein M of SARS-CoV Urbani,[1],0.1
same,Binding of serum SARS-yellow to looped/cyclic peptides of protein M of SARS-CoV Urbani,[1],0.4
same,Binding of Control Serum Blood-Bank to Looped peptides of the protein M of SARS-CoV Urbani,[2],0.6
same,Binding of Control serum Blood-bank to linear peptides of the protein M of SARS-CoV Urbani,[2],0.5
same,Binding of Control serum LUMC to linear peptides of the protein M of SARS-CoV Urbani,[2],0.3
same,Binding of Control serum LUMC to looped peptides of the protein M of SARS-CoV Urbani,[2],0.6
same,Rabbit serum linear peptides,[3],0.5
same,Rabbit serum looped peptides,[3],0.2
